Experimental data taken from a melting point compilation (Tetko et al.; mined from patent text by program, amines drawn as free bases though some values may be those of a salt).

Compound	melting point
N/C(=C1/Sc2ccccc2C1=O)c1ccccc1	121 to 122 °C
NC(=O)c1c(N)oc2c(-c3ccccc3)cccc2c1=O	233 to 235 °C
O=C(Nc1nc2ccc(Cl)cc2c2c1ncn2-c1ccccc1Cl)c1ccccc1	255 to 258 °C
CCOc1ccc(OCC(N)=O)c(C(Nc2ccc(C(=N)N)cc2)C(=O)O)c1 (racemic)	266 °C
O=[N+]([O-])c1ccc(-n2ccnc2)cc1Sc1cccc2cnccc12	178 to 188 °C
O=C(c1ccc(OCc2ccccc2)cc1)c1ccc(OCc2ccccc2)cc1	188 to 190 °C
Cc1nccn1-c1cccc(Nc2ccc(I)cc2[N+](=O)[O-])c1	135 to 136 °C
Cc1ccccc1CCOS(N)(=O)=O	50 to 52 °C
COC(=O)N[C@@H](C(=O)O)c1ccccc1	122 to 125 °C
CCCOCCOC(=O)C1=C(C)NC(C)=C(/C=C/S(=O)(=O)NC(C)C)C1c1cccc([N+](=O)[O-])c1 (centres undefined)	152 to 154 °C
Nc1ccc2c(=O)n(Cc3ccccc3)c(=O)n(-c3ccccc3)c2n1	261 to 262 °C
Cc1cccc2c1SC(C(F)(F)F)C(C(=O)O)=C2 (centres undefined)	224 to 225 °C
NC(=O)c1nc(-c2ccc(=O)[nH]c2)c(-c2ccccc2)nc1N	215 to 220 °C
CC1(C2CCCC2)Cc2cc(OC3=C(O)C(=O)NC3=O)c(Cl)c(Cl)c2C1=O (centres undefined)	181 to 183 °C
Cc1cn2ccc(N)c(I)c2n1	185 °C
CCOc1nc(C(=O)O)ccc1C#N	185 to 190 °C
CC(C)(CO)C(O)C(=O)NCc1cccnc1 (centres undefined)	120 to 122 °C
O=C1O[C@@H]2C[C@@]1(O)C=C(OCc1ccc3sccc3c1)[C@H]2O	177 to 179 °C
N#Cc1ccc(-c2cn(-c3ccc(I)cc3)c(SCC(O)CO)n2)cc1 (centres undefined)	160 to 174 °C
ClCCCCOc1ccc(C2c3ccc(OCc4ccccc4)cc3OCC2c2ccccc2)cc1 (centres undefined)	94 to 97.5 °C
NNc1c([N+](=O)[O-])cnn1-c1c(Cl)cc(C(F)(F)F)cc1Cl	133 to 135 °C
CC(=O)c1ccc(NC(=O)c2ccc(C3OCC(SC(C)C(O)(Cn4cncn4)c4ccc(F)cc4F)CO3)cc2)cc1 (centres undefined)	171 °C
COc1cc2nc(CN(C)C)nc(Cl)c2cc1OC	78 to 80 °C
CN1C(=O)C(C)(C)C(=O)Nc2ccc(C#N)cc21	250 to 251 °C
CCC(C)(O)C(=O)Nc1ccc(S(=O)(=O)c2ccccc2)cc1 (centres undefined)	163 to 165 °C

Compound	melting point
CC(C)(C)OC(=O)NCCCCCCNC(=O)c1cccc(-c2nc(=O)c3ccccc3s2)n1	145 °C
c1ccc(-c2cc3ccc4ccccc4n3n2)cc1	85 to 86 °C
Cc1cc(-n2cncn2)c2cccc(OCc3c(Cl)ccc(S(=O)(=O)N4CCC[C@H]4C(=O)NCC4CCN(C(=O)OC(C)(C)C)CC4)c3Cl)c2n1	94 °C
Cc1cc2c(=O)n(CCN(Cc3ccc4c(c3)NC(=O)C(C)(C)C(=O)N4CC3CC3)Cc3cccnc3C)ccc2o1	138 to 143 °C
Cc1cccc(NC(=O)NCC(=O)N(CC(=O)N(CC(=O)OC(C)(C)C)c2ccccc2)c2ccccc2)c1	76 to 80 °C
CN(C)CCCOc1cccc(CC(=O)c2cccc(OCCCN(C)C)c2)c1	102 to 105 °C
Nc1cc(CCC(=O)N(c2ccccc2)c2ccccc2)ccc1O	170 to 172 °C
CS(=O)(=O)Nc1ccc(C(=N)Nc2cc(Cl)cc(NC(=O)/C=C/c3ccccc3Cl)c2)cc1	158 to 160 °C
O=C1CCC(N2C(=O)c3cccc(CNC(=O)c4cncnc4)c3C2=O)C(=O)N1 (centres undefined)	> 260 °C
NC(C=C(Cc1ccccc1)CP(=O)(O)O)C(=O)O (centres undefined)	196 to 198 °C
CCOC(=O)C(C(=O)Nc1ccc(Br)cc1C)=S(C)C	146 to 149 °C
CCOC(=O)C1CCN(c2nc(C)nc3c2C(C)C(=O)N3c2c(C)cc(Br)cc2C)CC1 (centres undefined)	159 to 161 °C
CC(C)(C)OC(=O)N1CCNC(=O)C1Cc1ccc(OCc2ccccc2)cc1 (centres undefined)	145 to 147 °C
CCOC(=O)C(C)Oc1ccc(Nc2ccc(C(F)(F)F)cc2N)cc1 (centres undefined)	78 °C
Clc1ccc(-c2nc3cccnc3[nH]2)cc1	305 to 308 °C
c1cc(C2=NCCS2)nc(C2OCCO2)c1	50 to 52 °C
COc1ccc(C(C)(O)c2ocnc2C)cc1 (centres undefined)	115 to 116 °C
Cc1cc(C(=O)O)c(S(N)(=O)=O)s1	198 °C
C[Si](C)(C)C#Cc1ccc(I)cc1	57 to 59 °C
O=C(Nc1ccc2oc3c(c2c1)CCCC3)c1ccccc1	178 to 180 °C
CCC(=O)N1N=C(c2ccc([N+](=O)[O-])c(C)c2)c2cc3c(cc2CC1(C)C#N)OCO3 (centres undefined)	191 to 193 °C
NS(=O)(=O)c1ccc(-n2nc(C(F)(F)F)cc2-c2ccc(-c3cscn3)c(Cl)c2)cc1F	173 to 175 °C
CCOC(=N)c1cccc(C)c1OC	93 to 96 °C
COC(=O)c1csc2c(=O)cc(C3CCCCC3)oc12	114 to 119 °C
